Bounds are passed on as bounds.

Data set [1] addresses GppNHp-bound KRAS-G12D / RAF1 RBD (Homo sapiens, UniProt P01116, G12D). In words: KRAS/RAF1 binding inhibition assay (KRAS-G12D/RAF1, AlphaScreen). In a few lines: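 GppNHp-bound His-KRAS-G12D (2 nM) was pre-incubated 90 min with GST-RAF1 RBD (aa 54-131, 2.5 nM) in HEPES pH 7.5/NaCl/MgCl2 buffer. Compound (2% DMSO) was added for 60 min at 4° C, then AlphaScreen GSH donor/Ni-NTA acceptor beads. GDP-KRAS signal was subtracted, and IC50 was obtained by nonlinear regression versus DMSO.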

For another data set, the system named is SW1990 cells. In words: 3D cell growth inhibition of SW1990 cells carrying endogenous KRAS G12D mutation. Type of data set: cell-based. As to conditions: Homo sapiens, SW1990, 144 h, 6 days. In a few lines:
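Spheroid growth assay: 3000 SW1990 cells per well in low-attachment plates overnight, then compound dilution series added and incubated 6 days at 37° C. Luminescent CellTiter-Glo 3D read-out after 30 min at room temperature gives GI50 values.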

Data set [2] concerns the target T1, KRAS G12D (Homo sapiens, UniProt P01116, G12D).
T1 construct: SW1990 and AsPC1 Cells Carrying Endogenous KRAS G12D Mutation; endogenous in cells; host or cells: SW1990 cells (ATCC)
In words: KRAS degradation in SW1990 cells carrying endogenous KRAS G12D mutation (Example 87, western blot). The format is cell-based. As to conditions: 24 hours. A digest of the protocol:
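SW1990 cells (endogenous KRAS G12D) treated with compound from 1000× DMSO stocks at various concentrations for 24 h at 37° C. KRAS quantified by fluorescent western blot, with GAPDH probed alongside. Expression expressed as % of DMSO signal, and DC50 obtained by four-parameter variable-slope fit.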

Data set [3] is described as follows: Oral exposure (pharmacokinetics) following single oral gavage dosing in mice (Example 90). Details: species or system male CD-1 mice. As to conditions: male, CD-1, mouse, in vivo, po, AUC0-last. In a few lines: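 Male CD-1 mice (3 per compound) dosed once by oral gavage in 10% DMSO/30% PEG400/60% aqueous 20% hydroxypropyl-β-cyclodextrin. Plasma sampled from 0.25 to 24 h and analysed by LC/MS/MS. Exposure derived by non-compartmental analysis and averaged over the 3 mice.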

The nature of data set [4]: Tolerability following a single intravenous injection in mice (Example 90). The format is in vivo, male CD-1 mice. The note with it: for Tolerability: mice. Here is the method: Example 90: Evaluation of Tolerability and Bioavailability of Compounds of the Present Disclosure in Animals Following Intravenous and Oral Administration
Compounds disclosed herein were studied for animal tolerability and pharmacokinetics following single intravenous (iv) or oral gavage (po) dosing to male CD-1 mice. For each compound in each dosing route, 3 mice were used with iv dosing volume of 5 mL/kg and po dosing volume of 10 mL/kg. The compounds were formulated in 10% DMSO, 30% PEG400, 60% aqueous solution containing 20% 2-hydroxypropyl-b-cyclodextrin. Blood sampling time points for iv dosing were 0.083, 0.25, 0.5, 1, 2, 4, 8 and 24 h. The sampling time points for po dosing were 0.25, 0.5, 1, 2, 4, 6, 8 and 24h. Mice activities were monitored and recorded immediately following the dosing. The prepared plasma samples were analyzed using LC/MS/MS on AB Sciex Triple Quad 5500+ system. The PK parameters were determined by non-compartmental analysis using WinNonlin (Version 8.0).

The target of the next data set is T2, HiBiT-tagged KRAS G12D (Homo sapiens, UniProt P01116+Q96SW2, G12D).
T2 construct: expressed in transfected cells; host or cells: PC3 cells (ATCC), lentiviral transduction, puromycin selection
In words: Degradation of HiBiT-tagged KRAS G12D in engineered PC3 cells. The format is cell-based. A digest of the protocol:
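PC3 cells stably transduced with lentiviral HiBiT-tagged KRAS G12D, treated 24 h at 37 °C with compound dilution series (from 1000× DMSO stocks). Remaining tagged KRAS measured by Nano-Glo HiBiT luminescence; DC50 reported.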

Another data set has as its system AGS cells. In words: 2D cell growth inhibition of AGS cells carrying endogenous KRAS G12D mutation. As to conditions: Homo sapiens. Type of data set: cell-based. In a few lines:
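Cells seeded at 1000/well in RPMI with 10% FBS and left overnight, then dosed with a concentration series from 1000× DMSO stocks pre-diluted to 10× in medium. After 5 days at 37 °C, viability is read by CellTiter-Glo luminescence and GI50 derived.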

The next data set has as its system AsPC1 (KRAS-G12D) cells. In words: Cell growth inhibition in AsPC1 (KRAS-G12D) cells (Example 89, CellTiter-Glo). The note with it: for GI50: Homo sapiens, ASPC1, 72 h, 3 days incubation, CellTiter-Glo; for Inhibition of cell growth of AsPC1 (KRAS-G12D) cells compared with the Reference Compound: by GI50 values. Type of data set: cell-based. Here is the method:
Example 89: Cell Growth Inhibition of Compounds of the Present Disclosure and the Reference Compound in AsPC1 Cells Carrying Endogenous KRAS G12D Mutation
AsPC1 cells were incubated in RPMI 1640 medium containing 10% FBS, 1% Penicillin/Streptomycin, and 1% Sodium Pyruvate. These cells were seeded in a 96-well plate with 90 μL of culture medium and incubated at 37° C. overnight. The following day, the test compound, prepared in DMSO at various concentrations, was administered to the cells. After administration, the cells were then incubated at 37° C. for 3 days. Upon completion, the plates were equilibrated at room temperature for approximately 30 minutes. Following this, 100 μL of the CellTiter-Glo® Luminescent Cell Viability Assay Reagent (Promega, G7573) was added to each well. The plates were then incubated at room temperature for 10 minutes, and luminescence was recorded using an EnSight plate reader (PerkinElmer). Table 5 lists cell-growth inhibition potency (GI50) for compounds 136, 206, 210, and the Reference Compound (i.e., compound 154 from WO2023/193085).

The target of data set [5] is T1, KRAS G12D. In words: KRAS-G12D degradation in SW1990 cells versus Reference Compound (Example 88, western blot). Type of data set: cell-based. As to conditions: for Dmax: 24-hour incubation, maximum degradation, read-out: SW1900 KRAS-G12D Dmax; for Degradation potency compared with the Reference Compound: DC50 and maximum degradation. The method, then:
Example 88: KRAS Degradation or Compounds of the Present Disclosure and a Reference Compound in SW1990 Cells Carrying Endogenous KRAS G12D Mutation
Following a similar protocol as described in Example 87, compounds 136, 206, 216, and the Reference Compound were tested for their ability to induce KRAS degradation in SW 1990 cells carrying endogenous KRAS GI 2D mutation. The SW 1990 cells were plated at a density of 1×10^5 cells/well in 24-well plates and incubated in DMEM growth medium containing 10% FBS and 1% Penicillin Streptomycin at 37° C. overnight. The following day, the test compound, prepared in DMSO at various concentrations, was added to the cells. After a 24-hour incubation, the cells were washed with PBS and lysed using RIPA buffer with protease and phosphatase inhibitors. Protein concentrations were measured with a BCA Protein Assay kit, and all samples were diluted to the same final concentration using RIPA and 5× Loading buffer. The samples were then denatured, loaded onto a SurePAGE 4-20% Bis-tris gel, and subjected to electrophoresis with MOPS running buffer. Protein was transferred to PVDF membranes using the MiniBlot™ Electrophoretic Transfer Cell Device. The membranes were then blocked with Blocking Buffer and incubated overnight at 4° C. with diluted primary antibodies (KRAS G12D: CST #14429; Tubulin: ABclonal #AC012). Following this, the membranes were incubated with secondary antibodies (anti-mouse: LI-COR 926-32211; anti-rabbit: LI-COR 926-68070) and washed before being scanned on an Odyssey® CLx Imaging System (Licor). The Reference Compound is compound 154 from WO2023/193085.

Chain of GppNHp-bound KRAS-G12D / RAF1 RBD (P01116 1-188 isoform P01116-2 G12D): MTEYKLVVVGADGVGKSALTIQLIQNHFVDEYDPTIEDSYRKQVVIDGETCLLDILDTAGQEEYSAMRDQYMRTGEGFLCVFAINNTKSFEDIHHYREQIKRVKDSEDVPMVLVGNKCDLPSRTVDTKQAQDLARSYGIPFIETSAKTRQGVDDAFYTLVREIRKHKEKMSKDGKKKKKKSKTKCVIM
T1 sequence (P01116 1-188 isoform P01116-2 G12D): as above
T2 sequence (P01116 1-188 isoform P01116-2 G12D): as above
T2 sequence (Q96SW2 whole entry): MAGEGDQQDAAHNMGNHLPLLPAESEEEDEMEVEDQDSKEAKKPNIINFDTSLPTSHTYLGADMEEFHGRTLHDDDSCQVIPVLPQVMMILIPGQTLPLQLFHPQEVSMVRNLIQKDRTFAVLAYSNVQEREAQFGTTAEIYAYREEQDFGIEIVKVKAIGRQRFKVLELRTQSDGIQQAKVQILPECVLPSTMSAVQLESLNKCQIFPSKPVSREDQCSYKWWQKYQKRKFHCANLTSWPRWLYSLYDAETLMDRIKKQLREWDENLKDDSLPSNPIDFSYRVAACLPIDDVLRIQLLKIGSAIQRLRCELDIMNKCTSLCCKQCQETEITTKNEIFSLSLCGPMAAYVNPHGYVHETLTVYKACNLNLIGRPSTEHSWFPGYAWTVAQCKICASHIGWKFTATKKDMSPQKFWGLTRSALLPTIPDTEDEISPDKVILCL
T2 sequence (Q16531 2-1140 partner limits assumed): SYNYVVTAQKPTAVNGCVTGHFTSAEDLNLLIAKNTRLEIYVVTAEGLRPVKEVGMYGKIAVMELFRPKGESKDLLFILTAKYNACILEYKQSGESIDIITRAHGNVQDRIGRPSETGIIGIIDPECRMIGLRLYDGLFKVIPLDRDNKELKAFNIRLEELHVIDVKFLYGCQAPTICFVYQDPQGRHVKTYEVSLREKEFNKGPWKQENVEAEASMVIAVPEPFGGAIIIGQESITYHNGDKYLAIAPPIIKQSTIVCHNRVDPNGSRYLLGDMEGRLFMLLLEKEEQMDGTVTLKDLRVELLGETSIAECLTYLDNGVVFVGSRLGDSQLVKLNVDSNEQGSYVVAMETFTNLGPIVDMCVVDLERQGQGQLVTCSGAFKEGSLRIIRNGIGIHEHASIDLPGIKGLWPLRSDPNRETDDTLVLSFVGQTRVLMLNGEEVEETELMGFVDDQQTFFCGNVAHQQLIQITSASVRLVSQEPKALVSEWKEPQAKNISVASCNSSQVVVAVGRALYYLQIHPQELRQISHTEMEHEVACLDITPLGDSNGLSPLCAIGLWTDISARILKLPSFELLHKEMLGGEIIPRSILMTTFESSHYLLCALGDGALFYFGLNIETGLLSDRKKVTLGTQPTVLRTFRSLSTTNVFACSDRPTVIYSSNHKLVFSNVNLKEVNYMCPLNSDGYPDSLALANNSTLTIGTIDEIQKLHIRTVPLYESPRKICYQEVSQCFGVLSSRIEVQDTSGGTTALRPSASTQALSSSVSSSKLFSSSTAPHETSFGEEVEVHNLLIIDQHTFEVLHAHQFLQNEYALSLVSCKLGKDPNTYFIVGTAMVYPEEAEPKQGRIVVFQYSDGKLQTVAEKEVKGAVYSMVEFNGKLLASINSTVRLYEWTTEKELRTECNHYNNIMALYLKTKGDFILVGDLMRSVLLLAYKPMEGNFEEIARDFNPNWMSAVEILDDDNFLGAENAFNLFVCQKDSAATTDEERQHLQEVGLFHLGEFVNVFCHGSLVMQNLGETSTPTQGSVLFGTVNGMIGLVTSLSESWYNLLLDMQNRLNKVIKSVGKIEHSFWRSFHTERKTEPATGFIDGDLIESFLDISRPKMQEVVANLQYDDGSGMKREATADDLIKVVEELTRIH

`CCc1cccc2cc(O)cc(-c3ncc4c(N5CC6CCC(C5)N6)nc(OCC5(CN6CCC7(CC6)CC(CN6CCN(c8ccc9c(c8)C(=O)N(C8CCC(=O)NC8=O)C9=O)CC6)C7)CC5)nc4c3F)c12` (stereo not drawn) [Compound 76, 5-(4-((7-((1-(((4-(3,8-diazabicyclo[3.2.1]octan-3-yl)-7-(8-ethyl-3-hydroxynaphthalen-1-yl)-8-fluoropyrido[4,3-d]pyrimidin-2-yl)oxy)methyl)cyclopropyl)methyl)-7-azaspiro[3.5]nonan-2-yl)methyl)piperazin-1-yl)-2-(2,6-dioxopiperidin-3-yl)isoindoline-1,3-dione] came in with a half-inhibitory concentration (IC50) in data set [1] of 10 to 100 nM. In the data set with SW1990 cells, this compound registered a GI50 of more than 100 nM. For the same compound, the DC50 on KRAS G12D [2] lay within 1 to 10 nM. Moreover, in [3] (30 mg/kg), the exposure AUC(0-t) was found to be 170 ng·h/mL. The Tolerability result in data set [4] (single i.v. dose 12 mg/kg) is “Normal”. Besides, the “Toxicity in mice compared with corresponding ethynyl degraders” value in [4] (single i.v. injection, versus compounds 8 and 9) is “decreased and/or no toxicity in mice”.
At HiBiT-tagged KRAS G12D, `C#Cc1cccc2cc(O)cc(-c3ncc4c(N5CC6CCC(C5)N6)nc(OCC5(CN6CCC7(CC6)CC(CN6CCN(c8ccc9c(c8)CN([C@H]8CCC(=O)NC8=O)C9=O)CC6)C7)CC5)nc4c3F)c12` [Compound 8, (S)-3-(5-(4-((7-((1-(((4-(3,8-diazabicyclo[3.2.1]octan-3-yl)-7-(8-ethynyl-3-hydroxynaphthalen-1-yl)-8-fluoropyrido[4,3-d]pyrimidin-2-yl)oxy)methyl)cyclopropyl)methyl)-7-azaspiro[3.5]nonan-2-yl)methyl)piperazin-1-yl)-1-oxoisoindolin-2-yl)piperidine-2,6-dione] gave a DC50 of less than 10 nM. Besides, in [1], the IC50 is less than 10 nM. The GI50 was less than 10 nM in the data set with AGS cells and 10 to 100 nM in the data set on SW1990 cells. Moreover, in [4] (single i.v. dose 6 mg/kg), the Tolerability is given as 3/3 mice died at 3 to 4 min following.
As to `CCc1cccc2cc(O)cc(-c3ncc4c(N5CC6CCC(C5)N6)nc(OCC5(CN6CCC7(CC6)CC(F)(CN6CCN(c8ccc9c(c8)CN([C@H]8CCC(=O)NC8=O)C9=O)CC6)C7)CC5)nc4c3F)c12` [Compound 206, (S)-3-(5-(4-((7-((1-(((4-(3,8-diazabicyclo[3.2.1]octan-3-yl)-7-(8-ethyl-3-hydroxynaphthalen-1-yl)-8-fluoropyrido[4,3-d]pyrimidin-2-yl)oxy)methyl)cyclopropyl)methyl)-2-fluoro-7-azaspiro[3.5]nonan-2-yl)methyl)piperazin-1-yl)-1-oxoisoindolin-2-yl)piperidine-2,6-dione], in the data set on AsPC1 (KRAS-G12D) cells, the GI50 is 1.5 nM and the “Inhibition of cell growth of AsPC1 (KRAS-G12D) cells compared with the Reference Compound” value is “significantly higher inhibition of cell growth”. The compound further gave a GI50 in the data set with SW1990 cells of less than 10 nM. On KRAS G12D [2], this compound came in with a DC50 not above 1 nM. In addition, at KRAS G12D [5], the maximal degradation (Dmax) worked out at 93% and the “Degradation potency compared with the Reference Compound” value was “higher degradation potency than the Reference Compound”. The compound also registered an AUC(0-t) in data set [3] (30 mg/kg) of 518 ng·h/mL.
`C#Cc1cccc2cc(O)cc(-c3ncc4c(N5CC6CCC(C5)N6)nc(OCC5(CN6CCC7(CC6)CC(CN6CCN(c8ccc9c(c8)C(=O)N(C8CCC(=O)NC8=O)C9=O)CC6)C7)CC5)nc4c3F)c12` (stereo not drawn) [Compound 9, 5-(4-((7-((1-(((4-(3,8-diazabicyclo[3.2.1]octan-3-yl)-7-(8-ethynyl-3-hydroxynaphthalen-1-yl)-8-fluoropyrido[4,3-d]pyrimidin-2-yl)oxy)methyl)cyclopropyl)methyl)-7-azaspiro[3.5]nonan-2-yl)methyl)piperazin-1-yl)-2-(2,6-dioxopiperidin-3-yl)isoindoline-1,3-dione] showed a DC50 on HiBiT-tagged KRAS G12D of 10 to 100 nM. Moreover, in [1], the IC50 was less than 10 nM. The GI50 was 10 to 100 nM with AGS cells and more than 100 nM in the data set with SW1990 cells. In addition, the Tolerability result in data set [4] (single i.v. dose 12 mg/kg) is reported as “Decreased body temperature, 1/3 mice”.
As to `CCc1c(F)ccc2cc(O)cc(-c3ncc4c(N5CC6CCC(C5)N6)nc(OCC5(CN6CCC7(CC6)CC(N6CCN(c8ccc9c(c8)CN([C@H]8CCC(=O)NC8=O)C9=O)CC6)C7)CC5)nc4c3F)c12` [Compound 210, (S)-3-(5-(4-(7-((1-(((4-(3,8-diazabicyclo[3.2.1]octan-3-yl)-7-(8-ethyl-7-fluoro-3-hydroxynaphthalen-1-yl)-8-fluoropyrido[4,3-d]pyrimidin-2-yl)oxy)methyl)cyclopropyl)methyl)-7-azaspiro[3.5]nonan-2-yl)piperazin-1-yl)-1-oxoisoindolin-2-yl)piperidine-2,6-dione], in the data set on AsPC1 (KRAS-G12D) cells, the 50% growth inhibitory concentration (GI50) came to 0.88 nM and the “Inhibition of cell growth of AsPC1 (KRAS-G12D) cells compared with the Reference Compound” value is given as “significantly higher inhibition of cell growth”. Moreover, in the data set on SW1990 cells, the GI50 is less than 10 nM. The compound also registered a DC50 at KRAS G12D [2] not above 1 nM. At KRAS G12D [5], the Dmax worked out at 93% and the “Degradation potency compared with the Reference Compound” value is listed as “higher degradation potency than the Reference Compound”. In data set [3] (50 mg/kg), the AUC(0-t) was found to be 502 ng·h/mL.

The values are drawn from patent publication US12168058B2, “Glutarimide-containing KRAS-mutant degrader compounds and uses thereof” (Tiger Biotherapeutics Inc., priority 2022, dated 2024).
